Test results taken from ChEMBL document CHEMBL4043130, “Discovery of a tetrahydroisoquinoline-based HDAC inhibitor with improved plasma stability” (Bioorg Med Chem, 2017).
Activity calls are given as the source filed them. No cut-off for these calls is given here.

Key:
[1] = target: T1, Protein deacetylase HDAC6 (Homo sapiens) (UniProt Q9UBN7); experiment: Inhibition of HDAC6 in human MDA-MB-231 cells assessed as increase in acetylated alpha tubulin level at 1 uM after 3 hrs by Western blot analysis; format: cell-based
T1 sequence (whole entry): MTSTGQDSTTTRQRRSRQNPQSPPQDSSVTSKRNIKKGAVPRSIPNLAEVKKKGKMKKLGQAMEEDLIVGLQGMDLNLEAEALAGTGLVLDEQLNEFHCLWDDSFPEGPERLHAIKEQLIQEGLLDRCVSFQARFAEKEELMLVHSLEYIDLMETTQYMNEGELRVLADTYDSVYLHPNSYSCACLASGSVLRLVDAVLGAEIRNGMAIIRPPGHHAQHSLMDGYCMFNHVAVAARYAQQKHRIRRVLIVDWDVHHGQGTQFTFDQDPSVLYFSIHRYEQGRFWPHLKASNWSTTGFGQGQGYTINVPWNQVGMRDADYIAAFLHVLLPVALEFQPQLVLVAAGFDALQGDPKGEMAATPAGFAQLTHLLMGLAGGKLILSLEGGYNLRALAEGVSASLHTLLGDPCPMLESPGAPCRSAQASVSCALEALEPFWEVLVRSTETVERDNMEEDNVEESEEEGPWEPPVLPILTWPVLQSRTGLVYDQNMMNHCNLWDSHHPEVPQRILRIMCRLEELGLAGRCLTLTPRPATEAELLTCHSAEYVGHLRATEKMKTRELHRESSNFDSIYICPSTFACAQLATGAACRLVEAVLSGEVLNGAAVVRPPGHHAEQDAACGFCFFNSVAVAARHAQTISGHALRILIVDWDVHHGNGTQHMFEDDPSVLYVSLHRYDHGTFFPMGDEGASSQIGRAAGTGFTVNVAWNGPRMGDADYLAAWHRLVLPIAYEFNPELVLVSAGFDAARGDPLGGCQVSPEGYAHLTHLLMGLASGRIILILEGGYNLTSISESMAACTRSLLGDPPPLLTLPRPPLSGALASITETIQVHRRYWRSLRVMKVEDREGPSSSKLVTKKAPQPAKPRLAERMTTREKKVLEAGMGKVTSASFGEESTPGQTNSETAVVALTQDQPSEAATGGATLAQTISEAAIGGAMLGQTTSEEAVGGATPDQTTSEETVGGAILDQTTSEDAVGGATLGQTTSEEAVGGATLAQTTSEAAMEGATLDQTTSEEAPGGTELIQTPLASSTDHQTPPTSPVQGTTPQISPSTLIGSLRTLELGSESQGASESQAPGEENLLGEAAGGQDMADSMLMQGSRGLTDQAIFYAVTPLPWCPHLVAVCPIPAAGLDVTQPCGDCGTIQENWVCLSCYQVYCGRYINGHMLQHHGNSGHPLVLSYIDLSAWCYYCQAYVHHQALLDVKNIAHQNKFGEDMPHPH

[2] = test system: U-937; experiment: Antiproliferative activity against human U937 cells after 48 hrs by MTT assay; format: functional, cell-based; conditions: U-937, 48 h
[3] = Half life in rat plasma by HPLC analysis; format: ADME, cell-free
[4] = target: Histone deacetylase 1/2/3 (Homo sapiens) (UniProt Q13547+O15379+Q92769); experiment: Inhibition of HDAC1/2/3 in human MDA-MB-231 cells assessed as increase in hyperacetylation of histone H3 level at 1 uM after 3 hrs by Western blot analysis; format: cell-based
[5] = test system: MDA-MB-231; experiment: Antitumor activity against human MDA-MB-231 cells xenografted subcutaneously in BALB/c nude mouse assessed as reduction in tumor volume at 90 mg/kg, po; format: functional, organism-based
[6] = Inhibition of HDAC in human HeLa nuclear extract preincubated for 5 mins followed by Boc-Lys (acetyl)-AMC addition measured after 10 mins by fluorescence assay
[7] = test system: U-266; experiment: Antiproliferative activity against human U266 cells after 48 hrs by MTT assay; format: functional, cell-based; conditions: U-266, 48 h
[8] = test system: MDA-MB-231; experiment: Antitumor activity against human MDA-MB-231 cells xenografted subcutaneously in BALB/c nude mouse assessed as reduction in tumor growth at 90 mg/kg, po; format: functional, organism-based
[9] = test system: MDA-MB-231; experiment: Antiproliferative activity against human MDA-MB-231 cells after 48 hrs by MTT assay; format: functional, cell-based; conditions: MDA-MB-231, 48 h

inhibition [1] | IC50 [2] [µM] | half-life [3] [h] | inhibition [4] | IC50 [6] [µM] | IC50 [9] [µM] | SMILES | inhibition [5] | IC50 [7] [µM] | TGI [8]
Active | 0.55 | 10.5 | Active | 0.0385 | 2.13 | CC[C@H](C)[C@H](NC(=O)CC(C)(C)C)C(=O)N1Cc2cc(OCC(=O)NO)ccc2C[C@H]1C(=O)Nc1ccc(N(C)C)cc1 | Active | 0.78 | Active
– | – | 2.18 | – | 0.055 | – | CC[C@H](C)[C@H](NC(=O)OC(C)(C)C)C(=O)N1Cc2cc(OCC(=O)NO)ccc2C[C@H]1C(=O)Nc1ccc(N(C)C)cc1 | – | – | –
Active | 0.56 | 1.72 | Active | 0.0694 | 2.56 | CC[C@H](C)[C@H](NC(=O)CC(C)(C)C)C(=O)N1Cc2cc(OCC(=O)NO)ccc2C[C@H]1C(=O)Nc1ccc(OC)cc1 | Active | 0.69 | Active
– | – | 1.13 | – | 0.377 | – | CN(C)c1ccc(NC(=O)[C@@H]2Cc3ccc(OCC(=O)NO)cc3CN2C(=O)CNC(=O)CC(C)(C)C)cc1 | – | – | –
